Results published in PMC7118210 (Frontiers in Pharmacology, 2020).
Like-named read-outs stand apart in the source and are kept apart here. One block for each compound: values may come before it.

Columns and labels:
[1] = Single-dose pharmacokinetics in dogs (plasma, UHPLC/MS/MS); type: in vivo, Beagle dogs; details: for MRT last: read-out: MRT0-t; for MRT inf: read-out: MRT0-∞
Text: Sixty healthy adult Sprague Dawley rats (180-220 g, half male and female) were purchased from the Guangdong Medical Laboratory Animal Center (Guangzhou, Guangdong, China). Thirty Beagle dogs (10-14 kg, half male and female) were purchased from the […] Laboratory Animal Science & Technology Co., Ltd. (Gaoyao, Guangdong, China). All animals were housed under humanized conditions with free access to food and water, and acclimated to the living conditions for at least one week prior to experimentation at the Laboratory Animal Center of the School of Life Sciences, Sun Yat-sen University. Environmental conditions were maintained at 20°C-25°C, 55% ± 15% relative humidity, 12-h light/dark cycles, and 12 air changes per hour. Prior to experimentation, the animals were fasted overnight with water available ad libitum. All animals were healthy based on physical examination and laboratory analyses performed before and after the experiments. At the end of the experiments, the dogs were returned to the Laboratory Animal Center of School of Life Sciences, Sun Yat-sen University. […] All blood samples were transferred into heparin-treated centrifuge tubes and centrifuged for 10 min at 4,000 rpm and 4°C. All human urine samples were mixed and transferred (4 ml) into storage tubes. All biological samples were stored at -80°C. […] The optimal volume and activity in unit volume of enzyme solution [0.2 M acetic acid/water solution: 0.2 M ammonium acetate/water solution, 15:35 (v/v)] were determined through a pretest of the enzyme (rat plasma, 10 μl, 10 U μl^-1; dog plasma, 10 μl, 10 U μl^-1; human plasma, 20 μl, 20 U μl^-1; human urine, 10 μl, 10 U μl^-1). After enzyme incubation, 10 μl of IS solution was added to the plasma and urine samples (2 μg ml^-1 quercetin 3-β-D-glucoside for rat and dog plasma; 583 ng ml^-1 naringin-D4 and 160 ng ml^-1 naringenin-D4 for human plasma; and 9,710 ng ml^-1 naringin-D4 and 6,000 ng ml^-1 naringenin-D4 for human urine). To each fecal sample, 9-fold methanol-normal saline (2:1, v/v) was added, mixed (18,000 rpm, 15 min) by vortexing and centrifuged (10 min, 9,000 rpm, 4°C). Next, 10 μl IS solution (971 ng ml^-1 naringin-D4 and 600 ng ml^-1 naringenin-D4) was added to the supernatants of feces (200 μl) without enzyme incubation. […] The solid material was dissolved with acetonitrile-water (1:1, v/v) and injected into the ultra high-performance liquid chromatography coupled with triple quadrupole mass spectrometry (UHPLC/MS/MS) system as described below. The analysis of nonclinical and clinical samples was performed with a UHPLC/MS/MS system that consisted of a Shimadzu Nexera X2 ultra high-performance liquid chromatography (UHPLC) (Shimadzu Corp., Kyoto, Japan) coupled with an AB Sciex API4000 triple-quadrupole mass spectrometry (MS/MS) system (AB Sciex, Foster City, CA, USA) equipped with an electrospray ionization source and controlled by Analyst (v. 1.6.2) software. […] The injection volume was 10 μl with the flow rate of 0.3 ml min^-1 for plasma, and 0.4 ml min^-1 for urine and feces. The compounds were detected by multiple reaction monitoring in the negative ion electrospray mode. The electrospray source conditions were as follows: ion source gas1 30 psi, ion source gas2 60 psi, curtain gas 20 psi, collisionally activated dissociation (CAD) gas 8 psi, temperature 500°C, and ion spray voltage -4,500 V. Zero air was used for ion source gas1 and ion source gas2 and nitrogen for curtain gas and CAD gas. […] All pharmacokinetic and excretion parameters were expressed as mean ± standard deviation (SD). All mean and SD values were reported to three significant figures. The pharmacokinetic parameters were calculated using the Phoenix WinNonlin software (Version 6.4, Pharsight Corp., Cary, NC, USA) and compared using the Student's t-test (p < 0.05) in SPSS 18.0 (SPSS Inc., Chicago, IL, USA). […]

[2] = cited from earlier work
[3] = both sexes, Beagle, dog, plasma, po, 3.1 mg/kg
[4] = both sexes, Beagle, dog, plasma, po, 12.4 mg/kg
[5] = both sexes, beagle, dog, plasma, iv, 12.4 mg/kg
[6] = both sexes, beagle, dog, plasma, po, 49.6 mg/kg
[7] = female, Beagle, dog, plasma, iv, 12.4 mg/kg
[8] = female, Beagle, dog, plasma, po, 3.1 mg/kg
[9] = female, Beagle, dog, plasma, po, 12.4 mg/kg
[10] = female, Beagle, dog, plasma, po, 49.6 mg/kg
[11] = male, Beagle, dog, plasma, iv, 12.4 mg/kg
[12] = male, Beagle, dog, plasma, po, 3.1 mg/kg
[13] = male, Beagle, dog, plasma, po, 12.4 mg/kg
[14] = male, Beagle, dog, plasma, po, 49.6 mg/kg
[15] = naringin 3.1 mg kg^-1 p.o. single dose, dog
[16] = naringin 12.4 mg kg^-1 p.o. single dose, dog
[17] = naringin 49.6 mg kg^-1 p.o. single dose, dog

half-life ([1]; both sexes, Beagle, dog, plasma, oral, naringenin in dogs, studies overall): 2.03 ± 0.968 h
lag-time in plasma ([1]; dogs, after p.o. naringin): 1.83 ± 0.923 h
time for concentrations to increase to Cmax after the lag-time ([1]; dogs, after p.o. naringin): 4.17 ± 1.68 h
SMILES: O=C1C[C@@H](c2ccc(O)cc2)Oc2cc(O)cc(O)c21 [naringenin, Naringenin]
time within which excreted ([2]; rats, ref Liu M. et al., 2012): ≤ 24 h

SMILES: C[C@@H]1O[C@@H](O[C@H]2[C@H](Oc3cc(O)c4c(c3)O[C@H](c3ccc(O)cc3)CC4=O)O[C@H](CO)[C@@H](O)[C@@H]2O)[C@H](O)[C@H](O)[C@H]1O [naringin, Naringin]
half-life ([1]; both sexes, Beagle, dog, plasma, po): 1.41 ± 0.671 h
AUC(0-inf) [1, 3]: 129 ± 78.2 ng·h/mL
AUC(0-t) [1, 3]: 108 ± 58.8 ng·h/mL
Cmax [1, 3]: 39.9 ± 10.4 ng/mL
Tmax [1, 3]: 1.33 ± 0.258 h
half-life [1, 3]: 1.84 ± 1.46 h
MRT last [1, 3]: 2.5 ± 1.05 h
MRT inf [1, 3]: 3.38 ± 1.88 h
AUC(0-inf) [1, 4]: 135 ± 35.5 ng·h/mL
AUC(0-t) [1, 4]: 124 ± 32.2 ng·h/mL
Cmax [1, 4]: 70.2 ± 16.9 ng/mL
Tmax [1, 4]: 1 ± 0.316 h
half-life [1, 4]: 1.31 ± 0.581 h
MRT last [1, 4]: 1.77 ± 0.371 h
MRT inf [1, 4]: 2.17 ± 0.633 h
Tmax ([1]; both sexes, Beagle, dog, plasma, po, dogs, nonclinical p.o. administration studies overall): 1.11 ± 0.344 h
AUC(0-inf) [1, 5]: 2930 ± 403 ng·h/mL
AUC(0-t) [1, 5]: 2920 ± 406 ng·h/mL
Cmax [1, 5]: 5800 ± 946 ng/mL
Tmax [1, 5]: 0.08 h
clearance [1, 5]: 71.8 mL/min/kg
half-life [1, 5]: 1.37 ± 0.347 h
MRT last [1, 5]: 0.703 ± 0.153 h
MRT inf [1, 5]: 0.727 ± 0.143 h
Vd ([1]; both sexes, beagle, dog, plasma, iv, 12.4 mg/kg, read-out: Vd): 8.69 ± 3.35 L/kg
AUC(0-inf) [1, 6]: 224 ± 104 ng·h/mL
AUC(0-t) [1, 6]: 211 ± 92.1 ng·h/mL
Cmax [1, 6]: 107 ± 78.2 ng/mL
Tmax [1, 6]: 1 ± 0.447 h
half-life [1, 6]: 1.31 ± 0.293 h
MRT last [1, 6]: 2.46 ± 1.11 h
MRT inf [1, 6]: 2.73 ± 1.02 h
AUC(0-inf) [1, 7]: 3200 ± 337 ng·h/mL
AUC(0-t) [1, 7]: 3190 ± 344 ng·h/mL
Cmax [1, 7]: 5860 ± 1070 ng/mL
Tmax [1, 7]: 0.08 h
half-life [1, 7]: 1.25 ± 0.317 h
AUC(0-inf) [1, 8]: 109 ± 67.7 ng·h/mL
AUC(0-t) [1, 8]: 88.5 ± 40 ng·h/mL
Cmax [1, 8]: 36.8 ± 12.6 ng/mL
Tmax [1, 8]: 1.17 ± 0.289 h
half-life [1, 8]: 1.26 ± 0.633 h
AUC(0-inf) [1, 9]: 132 ± 36.8 ng·h/mL
AUC(0-t) [1, 9]: 115 ± 27.9 ng·h/mL
Cmax [1, 9]: 60.2 ± 10.8 ng/mL
Tmax [1, 9]: 1 ± 0.1 h
half-life [1, 9]: 1.42 ± 0.782 h
AUC(0-inf) [1, 10]: 262 ± 144 ng·h/mL
AUC(0-t) [1, 10]: 240 ± 128 ng·h/mL
Cmax [1, 10]: 157 ± 87.5 ng/mL
Tmax [1, 10]: 1.17 ± 0.289 h
half-life [1, 10]: 1.13 ± 0.312 h
AUC(0-inf) [1, 11]: 2640 ± 255 ng·h/mL
AUC(0-t) [1, 11]: 2640 ± 256 ng·h/mL
Cmax [1, 11]: 5740 ± 1050 ng/mL
Tmax [1, 11]: 0.08 h
half-life [1, 11]: 1.48 ± 0.404 h
AUC(0-inf) [1, 12]: 149 ± 97.4 ng·h/mL
AUC(0-t) [1, 12]: 128 ± 76.6 ng·h/mL
Cmax [1, 12]: 42.9 ± 9.19 ng/mL
Tmax [1, 12]: 1.5 ± 0.231 h
half-life [1, 12]: 2.41 ± 1.98 h
AUC(0-inf) [1, 13]: 137 ± 42.3 ng·h/mL
AUC(0-t) [1, 13]: 132 ± 40 ng·h/mL
Cmax [1, 13]: 80.2 ± 17.2 ng/mL
Tmax [1, 13]: 1 ± 0.5 h
half-life [1, 13]: 1.2 ± 0.443 h
AUC(0-inf) [1, 14]: 185 ± 45.5 ng·h/mL
AUC(0-t) [1, 14]: 181 ± 46.7 ng·h/mL
Cmax [1, 14]: 56.6 ± 6.83 ng/mL
Tmax [1, 14]: 0.833 ± 0.577 h
half-life [1, 14]: 1.5 ± 0.117 h
CL [1, 15]: 520 ± 257 mL/min/kg
Vd [1, 15]: 61.2 ± 23.0 L/kg
CL [1, 16]: 1630 ± 453 mL/min/kg
Vd [1, 16]: 171 ± 59.4 L/kg
CL [1, 17]: 4450 ± 2120 mL/min/kg
Vd [1, 17]: 482 ± 173 L/kg
cumulative excretion percentage ([2]; aged rats, in the forms of naringin and naringenin, ref Zeng et al., 2019): 19%
cumulative excretion percentage ([2]; aged rats, in the forms of naringin, naringenin, and 4-hydroxyphenylpropionic acid, ref Zeng et al., 2019): 98%
cumulative excretion percentage ([2]; rats, in the forms of naringin, naringenin, and 4-hydroxyphenylpropionic acid, ref Liu M. et al., 2012): 21%
time within which excreted ([2]; rats, ref Liu M. et al., 2012): ≤ 24 h
